{"source": "patent US20170129915A1", "about": "“THERAPEUTIC AGENT FOR DISEASES ASSOCIATED WITH NERVE AXON DYSFUNCTION, INCLUDING THERAPEUTIC AGENT FOR ALZHEIMER'S DISEASE” (Resilio Company Limited, priority 2014, published 2017)", "key": {"[1]": {"system": "spinal cord injury (SCI) model mice", "assay": "Evaluation of hindlimb motor function based on BMS and TMS", "format": "in vivo", "conditions": "suspension in sesame oil, oral once a day, 0.1 μmol/kg·day, 14 days, vs sesame oil alone, FIGS. 4A and 4B", "protocol": "Contusion injury was induced in 8-week-old female ddY mice (SLC) by the following procedure to give spinal cord injury (SCI) model mice. The ddY mice were maintained with free access to food and water in a controlled environment (22±2° C., 50±5% humidity, 12-h light/dark cycle starting at 7:00 am) Contusion injury was induced by exposing the lumbar vertebrae of each mouse in accordance with a conventional procedure, then placing the mouse in a stereotaxic apparatus (Narishige), and dropping a 6.5-g weight onto the first lumbar vertebrae (L1) from a height of 2 cm once. The mouse was then subjected to surgical procedures such as suture in a conventional manner. One hour after the induction of the contusion injury, the mice were randomly selected and divided into test groups and were subjected to the administration test described later in Example 10 and Comparative Example 5.\nThe locomotion behavior in the open field was evaluated using the Basso Mouse Scale (BMS) (see, for example, Engesser-Cesar C, Anderson A J, Basso D M et al., (2005), Voluntary wheel running improves recovery from a moderate spinal cord injury, J Neurotrauma 22: 157-171), which was a general standard for the evaluation of the hindlimb motor function of spinal cord injury model mice, and a 0-30-point Toyama Mouse Scale (TMS), which was a modified BMS established by the inventors for better test accuracy. […]"}, "[2]": {"system": "normal or AD model mice", "conditions": "intraperitoneal administration; cited from earlier work"}, "[3]": {"system": "normal mice (ddY)", "assay": "Object location memory test in normal mice (Reference Test 2)", "format": "in vivo", "conditions": "10 μmol/kg·day, 5 days, ddY male 6 weeks, interval 48 hours", "protocol": "ddY Mice were obtained from Japan SLC (Hamamatsu, Japan) In the Examples below, 6-week-old male ddY mice were used as normal mice. All mice were housed with free access to food and water and were kept in a controlled environment at 22±2° C., 50±5% humidity, and 12-h light/dark cycle starting at 7:00 am.\nTesting was carried out in a dimly illuminated room (about 100 lx). An appropriate time interval between a training session and a test session was set based on the results of a preliminary test using another group of mice. The object location memory test utilizes animals' habit of showing interest in a novel object. The two opposite walls of a four-walled open-field box for the test had wall coverings with a distinct pattern. […] In the test session, one of the objects was moved to a different location, and the mice were allowed to explore freely for 10 minutes. The increase of the number of times a mouse preferentially explored the identical but relocated object was used as an index of the location memory. That is, the test session determines whether a mouse remembers the previous exposure to an object in the training session. In the Examples below, the ratio (%) of the number of times a mouse explored the object after relocation to the total exploration time was calculated as a preference index. […]"}, "[4]": {"system": "normal mice (ddY)", "assay": "Object recognition memory test in normal mice", "format": "in vivo", "conditions": "Example 12: suspension in sesame oil, oral, 0.1 μmol/kg·day, 4 days; ddY male and female 9 weeks; interval 48 hours; FIG. 10", "protocol": "[…] All mice were housed with free access to food and water and were kept in a controlled environment at 22±2° C., 50±5% humidity, and 12-h light/dark cycle starting at 7:00 am.\nThe next day of the measurement of spontaneous motor activity, an object recognition memory test was performed as described in Joyashiki, E. et al., Int J Neurosci, 121, 181-190, 2011 and Tohda, C. et al., Int J Neurosci, 121, 641-648, 2011, reported by the inventors and others. Testing was carried out in a dimly illuminated room (about 100 lx). An appropriate time interval between a training session and a test session was set based on the results of a preliminary test using another group of mice. The object recognition memory test utilizes animals' habit of showing interest in a novel object. The inner walls of the open-field box for the test had no marks. In the training session, two identical objects were placed in the field, and mice were allowed to explore freely for 10 minutes. In the test session, the location of the objects was not changed, but one of the objects was replaced with a novel object, and the mice were allowed to explore freely for 10 minutes. […] In the Examples below, the ratio (%) of the number of times a mouse explored the novel object to the total exploration time was calculated as a preference index. […]"}}}
{"smiles": "C[C@@H]1CC[C@@]2(OC1)O[C@H]1C[C@H]3[C@@H]4CC=C5C[C@@H](F)CC[C@]5(C)[C@H]4CC[C@]3(C)[C@H]1[C@@H]2C", "note": "[Dios-F, (3β,25R)-3-fluorospirost-5-ene]", "values": [{"measurement": "hindlimb motor function (BMS and TMS scores)", "setting": "[1]", "value": "significantly improved"}]}
{"smiles": "C[C@@H]1CC[C@@]2(OC1)O[C@H]1C[C@H]3[C@@H]4CC=C5C[C@@H](O)CC[C@]5(C)[C@H]4CC[C@]3(C)[C@H]1[C@@H]2C", "note": "[diosgenin, Diosgenin]", "values": [{"measurement": "memory", "setting": "[2]", "value": "enhanced the memory"}, {"measurement": "memory enhancing effect, object location memory test", "setting": "[3]; Reference Example 1: dissolved in aqueous solvent (ethanol/5% glucose), oral, FIG. 6A", "value": "no memory enhancing effect"}, {"measurement": "memory enhancing effect, object location memory test", "setting": "[3]; Reference Example 2: dissolved in aqueous solvent, intraperitoneal, FIG. 6B", "value": "a significant memory enhancing effect"}, {"measurement": "object recognition memory", "setting": "[4]", "value": "a significant enhancement of the object recognition memory"}]}
